Experiment [1] addresses Neurotensin receptor type 1 (Mus musculus, UniProt O88319).
The target in experiment [2] is Neurotensin receptor type 2 (Mus musculus, UniProt P70310).

Square brackets hold non-standard residues; d marks the D form. Peptide text beside a SMILES is read from it. NMeR = CN[C@@H](CCCNC(=N)N)C(=O)O; Tle = CC(C)(C)[C@H](N)C(=O)O

Sequence of Neurotensin receptor type 2 (P70310 whole entry): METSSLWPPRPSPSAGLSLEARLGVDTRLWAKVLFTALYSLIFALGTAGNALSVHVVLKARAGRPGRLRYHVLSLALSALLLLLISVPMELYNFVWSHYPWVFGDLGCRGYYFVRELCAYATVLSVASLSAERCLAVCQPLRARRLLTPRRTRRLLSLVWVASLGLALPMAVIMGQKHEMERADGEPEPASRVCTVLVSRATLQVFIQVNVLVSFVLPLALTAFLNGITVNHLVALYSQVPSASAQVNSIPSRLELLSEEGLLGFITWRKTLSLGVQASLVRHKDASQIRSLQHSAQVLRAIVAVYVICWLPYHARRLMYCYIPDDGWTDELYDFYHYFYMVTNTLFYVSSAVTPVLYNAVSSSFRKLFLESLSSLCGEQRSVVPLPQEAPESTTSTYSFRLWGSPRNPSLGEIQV
Sequence of Neurotensin receptor type 1 (O88319 whole entry): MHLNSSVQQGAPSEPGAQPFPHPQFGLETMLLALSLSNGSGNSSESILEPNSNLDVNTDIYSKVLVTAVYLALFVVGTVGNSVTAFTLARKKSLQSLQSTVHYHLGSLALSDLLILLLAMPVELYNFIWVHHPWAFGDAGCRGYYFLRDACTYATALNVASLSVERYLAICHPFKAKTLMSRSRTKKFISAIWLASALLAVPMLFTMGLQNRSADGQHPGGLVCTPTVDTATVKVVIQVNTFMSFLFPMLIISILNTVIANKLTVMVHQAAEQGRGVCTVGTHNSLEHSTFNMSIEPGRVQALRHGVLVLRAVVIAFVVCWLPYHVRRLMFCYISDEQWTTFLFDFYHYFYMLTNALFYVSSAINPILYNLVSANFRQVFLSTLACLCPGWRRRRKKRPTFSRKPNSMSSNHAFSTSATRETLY

By Ki is commonly meant the dissociation constant of the complex between target and ligand, obtained from inhibition or displacement. Read a low Ki as a stronger hold on the target. As for `CN[C@@H](CCCNC(=N)N)C(=O)N[C@@H](CCCCN)C(=O)N1CCC[C@H]1C(=O)N[C@@H](Cc1c[nH]c2ccccc12)C(=O)N[C@H](C(=O)N[C@@H](CC(C)C)C(=O)O)C(C)(C)C` (H-[NMeR]KPW[Tle]L-OH), the values for the Ki in experiment [1] and in experiment [2] were 0.11 nM and 3.8 nM, respectively.

With H-KNPYIL-OH [NSC_128644], the values for the Ki in experiment [1] and in experiment [2] were 0.25 nM and 7 nM, respectively.

`CC1CN(C2CCC(C#N)(c3ccc(F)cc3)CC2)CCC1(C(=O)O)c1ccccc1` (stereo not given) [NSC_54385]: in experiment [2], the Ki stood at 17 nM.

The values are drawn from BindingDB's records for doi:10.1124/jpet.300.1.305 (Merck Research Laboratories, 2002).
